Numbering of substitutions follows the chain as printed.
How the values were obtained:
GPR139 = target: T1, GPR139 (Homo sapiens, UniProt Q6DWJ6); experiment: Phospho-ERK1/2 HTRF assay in CHO-GPR139 cells; format: cell-based; conditions: ERK phosphorylation
T1 construct: host or cells: CHO-k1
T1 sequence (Q6DWJ6 1-353): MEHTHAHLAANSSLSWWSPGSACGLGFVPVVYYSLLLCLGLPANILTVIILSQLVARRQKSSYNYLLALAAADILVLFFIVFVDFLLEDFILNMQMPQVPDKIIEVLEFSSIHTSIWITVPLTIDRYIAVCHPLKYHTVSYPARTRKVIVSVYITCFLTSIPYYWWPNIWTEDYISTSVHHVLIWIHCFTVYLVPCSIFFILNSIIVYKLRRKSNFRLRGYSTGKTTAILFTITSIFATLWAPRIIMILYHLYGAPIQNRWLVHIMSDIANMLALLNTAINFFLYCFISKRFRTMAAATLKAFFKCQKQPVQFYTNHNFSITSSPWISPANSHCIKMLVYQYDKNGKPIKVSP
Experimental: All compounds were tested on a CHO-k1 cell line stably expressing GPR139 (CHO-GPR139)[11] kindly provided by H. Lundbeck A/S, Denmark. GPR139-specific responses were assessed using a CHO-k1 cell line stably expressing the muscarinic acetylcholine receptor M1 (CHO-M1) (The Missouri S&T cDNA Resource Center, # CEM100TN00).
Phospho-ERK measurements were made using the Advanced Phospho-ERK1/2 (Thr202/Tyr204) HTRF kit by Cisbio (Codolet, France). Approximately 24 hours prior to the experiment, CHO-GPR139 cells were plated at 50,000 cells/well onto a 96-well plate and cultured as detailed above. Approximately 6 hours later, the media was aspirated, replaced with 50 μL serum-free media, and the cells were allowed to serum starve overnight. The day of the experiment, serial dilutions of the test compounds and controls were made in serum-free media at 2x final concentration. 50 μL of test compounds were added directly to the appropriate wells for 5 minute stimulation at 37 °C. At this point, the media and compounds were rapidly aspirated, lysis/blocking buffer was added, and cells were lysed on a shaker for 30 minutes at room temperature.
The Ca^2+ and ERK responses were normalized as indicated and the concentration response curves were fitted by Prism 6 software (GraphPad) using nonlinear regression in a sigmoidal model with variable slope, as has been previously described.

GPR139 N271A^7×38 = target: T2, GPR139 N271A^7×38 (Homo sapiens, UniProt Q6DWJ6, N271A); experiment: Ca2+ mobilization on GPR139 mutant N271A; format: cell-based
T2 construct: myc (N); expressed in transfected cells
T2 sequence (Q6DWJ6 1-353 N271A): T1 sequence (Q6DWJ6 1-353) with N271A
Experimental: Figure 4 Ca^2+ mobilization concentration-response curves of AC4 on GPR139 wild-type (WT) and mutants. Data is shown from a representative experiment (mean ± S.D.) out of three independent experiments performed in duplicate. Data is normalized to the Ca^2+ response of buffer (0%) and 100 μM AC4 (100%) on myc-GPR139(WT). Residue numbering in superscript is according to GPCRdb numbering system.
The mutational studies were performed as previously described.

EC50 (GPR139; CHO-GPR139 cells, read-out: pEC50 ± SEM (converted)): 178 nM
Emax (GPR139; expressed relative to FBS positive control): 77.2 ± 6.53%
Ca2+ response (GPR139 N271A^7×38): no measurable Ca^2+ response
SMILES: O=C(O)C1CC=CCC1c1nnc(CSc2ccc(Cl)cc2)o1 (stereo not drawn) [AC4]
